# Results: PMC6158189, “A pharmacological probe identifies cystathionine β-synthase as a new negative regulator for ferroptosis” (Cell Death & Disease, 2018)
# Assays:
# Huh7 cells = test: cell viability (CellTiter 96 Aqueous One); type: cell-based
# Method: (§1) To measure cell viability and cytotoxicity, HepG2, HEK293T, Huh-7, H22, Panc-28, HCT116 and MDA-MB-231 cells were seeded at a density of ~ 2 × 10^4 cells per well in 96-well plates (Coring, NY, USA) for one day, followed by incubation with DMSO or various concentrations of tested compound for indicated times. Then, the cells were collected to measure the cell viability using the CellTiter 96® Aqueous One Solution Cell Proliferation Assay (Promega, G3581) according to the standard protocols.
# (§2) Figure S11. The effects of CH004 on cell viability in various types of cancer cell lines. (A) Dose-dependent curves of CH004 on cell viability of HepG2 cells (▲), HEK293T cells (○). Percentages of cell viability of CH004 obtained in Figure 4a were fitted to the non-linear equation using GraphPad Prism 5 to get the IC50 values of CH004 in respective cell lines. Means ± SDs (n=3). […] (B) MDA-MB-231 (breast cancer cell cline), HCT116 (colon cancer), Panc-28 cells (pancreas cancer), Huh7 cells (hepatocellular carcinoma) and H22 (mouse liver cancer) were incubated with DMSO (control) or indicated concentrations of CH004 for 24 h in a 96-well plate before assessing cell viability using the CellTiter96® Aqueous One Solution Cell Proliferation Assay (Promega). The data are shown as percentages of control (DMSO, 100%). Means ± SDs (n=3). (C) The dose-dependent curve of CH004 on cell viability. Percentages of cell viability obtained in B were fitted to the non-linear equation using GraphPad Prism 5 to get the IC50 values of CH004 in respective cell lines. […] The experiments were independently repeated twice in triplicates and a representative experiment is shown.
# Panc-28 cells = test: cell viability (CellTiter 96 Aqueous One); type: cell-based; conditions: 24 h
# Method: as §1, §2
# MDA-MB-231 cells = test: cell viability (CellTiter 96 Aqueous One); type: cell-based; conditions: Homo sapiens, MDA-MB-231, 24 h
# Method: as §1, §2
# HCT116 cells = test: cell viability (CellTiter 96 Aqueous One); type: cell-based
# Method: as §1, §2
# HEK293T cells = test: cell death, FITC Annexin V kit, flow cytometry; type: cell-based; conditions: 40 μM, 12 h
# Method: Fig. 4 CH004 arrests the cell cycle at the S phase. a CH004 reduces the cell viability of HEK293T and HepG2 cells. HEK293T or HepG2 cells were treated with indicated concentrations of CH004 for 24 h before the cell number was analyzed using the CellTiter96® Aqueous One Solution Cell Proliferation Assay (Promega, Materials and Methods). The means at each concentration of one representative experiment are shown as percentages of DMSO (control, 100%). Means ± SDs (n = 3). b Overexpression of hCBS or knock-down of hCBS counteracts the growth inhibition exerted by CH004 in HEK293T cells. Indicated HEK293T stable cell lines were treated with the CH004 or DMSO for 24 h. Then, the cell viability was quantified with the CellTiter 96® Aqueous One Solution Cell Proliferation Assay under the standard protocol (Promega). […] The efficacy for CBS overexpression and knock-down in HEK293T cells was determined by Western blotting using an anti-CBS antibody (3E1, 1:2000; Abnova). c CH004 induces cell death in HEK293T and HepG2 cells. […] HEK293T cells were incubated with indicated compounds for 12 h, and the DNA content was quantified with propidium iodide to analyze the cell cycle distribution by flow cytometry (e). The cell cycle distributions for HEK293T-shNT and HEK293T-shCBS cells were accordingly analyzed and are shown in f. […]
# H22 cells = test: cell viability (CellTiter 96 Aqueous One); type: cell-based, mouse
# Method: as §1
# Figure S11. The effects of CH004 on cell viability in various types of cancer cell lines. (A) Dose-dependent curves of CH004 on cell viability of HepG2 cells (▲), HEK293T cells (○). Percentages of cell viability of CH004 obtained in Figure 4a were fitted to the non-linear equation using GraphPad Prism 5 to get the IC50 values of CH004 in respective cell lines. Means ± SDs (n=3). […] (B) MDA-MB-231 (breast cancer cell cline), HCT116 (colon cancer), Panc-28 cells (pancreas cancer), Huh7 cells (hepatocellular carcinoma) and H22 (mouse liver cancer) were incubated with DMSO (control) or indicated concentrations of CH004 for 24 h in a 96-well plate before assessing cell viability using the CellTiter96® Aqueous One Solution Cell Proliferation Assay (Promega). The data are shown as percentages of control (DMSO, 100%). Means ± SDs (n=3). (C) The dose-dependent curve of CH004 on cell viability. […]
smiles,measurement,setting,value
"Cn1nc(Cc2ccccc2)nc2c(=O)n(C)c(=O)nc1-2 [CH004, 3-benzyl-1,6-dimethylpyrimido[5,4-e][1,2,4]triazine-5,7(1H,6H)-dione]",IC50,Huh7 cells; 24 h,~12 µM
same,IC50,"Huh7 cells; Homo sapiens, Huh-7, 24 h",12.4 ± 1.6 µM
same,IC50,Panc-28 cells,7.2 ± 0.5 µM
same,IC50,MDA-MB-231 cells,25.8 ± 3.2 µM
same,IC50,HCT116 cells; 24 h,4 µM
same,IC50,"HCT116 cells; Homo sapiens, HCT-116, 24 h",4.1 ± 1.2 µM
same,increase in cell death,HEK293T cells,~ 30%
same,IC50,H22 cells; 24 h,~13 µM
same,IC50,"H22 cells; Mus musculus, H22, 24 h",12.9 ± 0.7 µM
